Measured values: the kinase profiling compilation of Christmann-Franck et al. (2016)

How the values were obtained:
Assay in all cases: KINOMEscan competition binding
Details in all cases: compound 10.0 µM
[1] = target: EPHB1 (human) (UniProt P54762)
[2] = target: MARK1 (human) (UniProt Q9P0L2)
[3] = target: JAK2 JH1 catalytic (human) (UniProt O60674)
[4] = target: PIM1 (human) (UniProt P11309)
[5] = target: PRKACB (human) (UniProt P22694)
[6] = target: MYLK2 (human) (UniProt Q9H1R3)
[7] = target: ROS1 (human) (UniProt P08922)
[8] = target: EIF2AK2 (human) (UniProt P19525)
[9] = target: NEK7 (human) (UniProt Q8TDX7)
[10] = target: JAK1 JH1 catalytic (human) (UniProt P23458)
[11] = target: MAPK1 (human) (UniProt P28482)
[12] = target: IRAK3 (human) (UniProt Q9Y616)
[13] = target: SRC (human) (UniProt P12931)
[14] = target: MUSK (human) (UniProt O15146)
[15] = target: TSSK1B (human) (UniProt Q9BXA7)
[16] = target: CDK7 (human) (UniProt P50613)
[17] = target: RIPK2 (human) (UniProt O43353)
[18] = target: CDC42BPB (human) (UniProt Q9Y5S2)
[19] = target: RPS6KA6 KD1 (human) (UniProt Q9UK32)
[20] = target: HIPK1 (human) (UniProt Q86Z02)
[21] = target: EPHB3 (human) (UniProt P54753)
[22] = target: RIOK2 (human) (UniProt Q9BVS4)
[23] = target: CLK3 (human) (UniProt P49761)
[24] = target: MAP3K9 (human) (UniProt P80192)
[25] = target: CDKL2 (human) (UniProt Q92772)
[26] = target: TLK1 (human) (UniProt Q9UKI8)
[27] = target: CaMK1 (human) (UniProt Q14012)
[28] = target: PIP4K2B (human) (UniProt P78356)
[29] = target: BMPR2 (human) (UniProt Q13873)
[30] = target: EPHA3 (human) (UniProt P29320)
[31] = target: AURKA (human) (UniProt O14965)
[32] = target: DAPK3 (human) (UniProt O43293)
[33] = target: MAPK12 (human) (UniProt P53778)
[34] = target: DDR2 (human) (UniProt Q16832)
[35] = target: MAP4K5 (human) (UniProt Q9Y4K4)
[36] = target: MAPK4 (human) (UniProt P31152)
[37] = target: PHKG2 (human) (UniProt P15735)
[38] = target: PRKACA (human) (UniProt P17612)
[39] = target: NEK6 (human) (UniProt Q9HC98)
[40] = target: CSNK1E (human) (UniProt P49674)

Chain of AURKA (human) (O14965 whole entry, looked up): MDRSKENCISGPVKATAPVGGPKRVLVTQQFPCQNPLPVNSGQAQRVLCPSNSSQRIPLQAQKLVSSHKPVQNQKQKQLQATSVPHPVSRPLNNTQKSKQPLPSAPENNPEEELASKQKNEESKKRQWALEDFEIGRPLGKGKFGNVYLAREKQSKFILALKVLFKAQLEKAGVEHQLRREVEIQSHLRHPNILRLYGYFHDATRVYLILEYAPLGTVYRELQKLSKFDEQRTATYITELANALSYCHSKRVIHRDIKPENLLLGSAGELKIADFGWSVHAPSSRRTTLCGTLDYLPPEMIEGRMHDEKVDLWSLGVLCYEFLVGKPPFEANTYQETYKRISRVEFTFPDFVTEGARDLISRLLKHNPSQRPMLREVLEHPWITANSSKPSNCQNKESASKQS
Chain of MAP4K5 (human) (Q9Y4K4 whole entry, looked up): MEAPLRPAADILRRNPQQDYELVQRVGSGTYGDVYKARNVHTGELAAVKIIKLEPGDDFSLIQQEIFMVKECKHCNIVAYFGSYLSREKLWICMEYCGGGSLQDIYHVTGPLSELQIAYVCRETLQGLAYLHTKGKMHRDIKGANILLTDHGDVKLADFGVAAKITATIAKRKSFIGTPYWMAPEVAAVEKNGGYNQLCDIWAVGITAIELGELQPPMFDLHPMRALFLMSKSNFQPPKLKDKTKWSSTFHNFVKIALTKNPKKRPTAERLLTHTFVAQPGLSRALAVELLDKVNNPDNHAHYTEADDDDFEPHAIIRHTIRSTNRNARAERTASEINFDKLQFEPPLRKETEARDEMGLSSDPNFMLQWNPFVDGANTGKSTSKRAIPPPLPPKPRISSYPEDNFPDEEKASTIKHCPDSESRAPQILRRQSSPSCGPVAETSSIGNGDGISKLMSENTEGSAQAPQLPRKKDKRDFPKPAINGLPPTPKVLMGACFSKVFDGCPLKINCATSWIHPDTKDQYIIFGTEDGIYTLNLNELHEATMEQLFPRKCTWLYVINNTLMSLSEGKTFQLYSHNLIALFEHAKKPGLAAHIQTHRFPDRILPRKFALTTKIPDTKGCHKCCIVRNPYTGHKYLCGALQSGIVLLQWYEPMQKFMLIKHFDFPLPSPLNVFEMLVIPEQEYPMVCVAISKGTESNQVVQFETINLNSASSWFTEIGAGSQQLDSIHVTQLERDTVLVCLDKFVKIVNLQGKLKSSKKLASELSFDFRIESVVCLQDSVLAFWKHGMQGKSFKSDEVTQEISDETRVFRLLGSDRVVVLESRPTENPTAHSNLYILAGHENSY
Chain of JAK1 JH1 catalytic (human) (P23458 whole entry, looked up): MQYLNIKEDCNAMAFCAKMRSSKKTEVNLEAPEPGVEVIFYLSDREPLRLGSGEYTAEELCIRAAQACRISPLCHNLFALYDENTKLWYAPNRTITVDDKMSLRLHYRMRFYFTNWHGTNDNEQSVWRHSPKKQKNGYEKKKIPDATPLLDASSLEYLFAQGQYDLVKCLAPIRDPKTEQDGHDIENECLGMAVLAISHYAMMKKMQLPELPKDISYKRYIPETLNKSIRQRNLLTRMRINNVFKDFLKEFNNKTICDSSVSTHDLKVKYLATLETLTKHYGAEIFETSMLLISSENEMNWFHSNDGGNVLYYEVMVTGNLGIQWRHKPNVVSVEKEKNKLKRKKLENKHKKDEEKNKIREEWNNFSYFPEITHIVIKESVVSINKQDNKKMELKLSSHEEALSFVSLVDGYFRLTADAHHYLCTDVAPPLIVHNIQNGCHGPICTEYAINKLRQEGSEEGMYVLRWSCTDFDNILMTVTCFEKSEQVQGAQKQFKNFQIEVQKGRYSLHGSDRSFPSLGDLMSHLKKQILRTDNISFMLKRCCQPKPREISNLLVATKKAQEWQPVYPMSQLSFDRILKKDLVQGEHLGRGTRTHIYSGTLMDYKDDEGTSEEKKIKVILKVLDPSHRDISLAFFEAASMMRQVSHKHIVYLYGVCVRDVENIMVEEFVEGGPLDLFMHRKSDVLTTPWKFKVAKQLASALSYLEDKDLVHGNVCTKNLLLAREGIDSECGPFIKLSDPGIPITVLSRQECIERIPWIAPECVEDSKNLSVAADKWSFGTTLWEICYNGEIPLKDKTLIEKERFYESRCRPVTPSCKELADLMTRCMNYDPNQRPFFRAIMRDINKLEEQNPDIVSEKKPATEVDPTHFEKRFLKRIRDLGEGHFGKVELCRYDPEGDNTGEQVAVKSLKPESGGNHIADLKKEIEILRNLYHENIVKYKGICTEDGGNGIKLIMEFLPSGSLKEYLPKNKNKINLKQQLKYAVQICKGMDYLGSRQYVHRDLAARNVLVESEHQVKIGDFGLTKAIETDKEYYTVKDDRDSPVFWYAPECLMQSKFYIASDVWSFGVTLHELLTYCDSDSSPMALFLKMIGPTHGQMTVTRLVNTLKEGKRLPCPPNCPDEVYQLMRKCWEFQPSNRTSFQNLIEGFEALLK
Chain of RPS6KA6 KD1 (human) (Q9UK32 whole entry, looked up): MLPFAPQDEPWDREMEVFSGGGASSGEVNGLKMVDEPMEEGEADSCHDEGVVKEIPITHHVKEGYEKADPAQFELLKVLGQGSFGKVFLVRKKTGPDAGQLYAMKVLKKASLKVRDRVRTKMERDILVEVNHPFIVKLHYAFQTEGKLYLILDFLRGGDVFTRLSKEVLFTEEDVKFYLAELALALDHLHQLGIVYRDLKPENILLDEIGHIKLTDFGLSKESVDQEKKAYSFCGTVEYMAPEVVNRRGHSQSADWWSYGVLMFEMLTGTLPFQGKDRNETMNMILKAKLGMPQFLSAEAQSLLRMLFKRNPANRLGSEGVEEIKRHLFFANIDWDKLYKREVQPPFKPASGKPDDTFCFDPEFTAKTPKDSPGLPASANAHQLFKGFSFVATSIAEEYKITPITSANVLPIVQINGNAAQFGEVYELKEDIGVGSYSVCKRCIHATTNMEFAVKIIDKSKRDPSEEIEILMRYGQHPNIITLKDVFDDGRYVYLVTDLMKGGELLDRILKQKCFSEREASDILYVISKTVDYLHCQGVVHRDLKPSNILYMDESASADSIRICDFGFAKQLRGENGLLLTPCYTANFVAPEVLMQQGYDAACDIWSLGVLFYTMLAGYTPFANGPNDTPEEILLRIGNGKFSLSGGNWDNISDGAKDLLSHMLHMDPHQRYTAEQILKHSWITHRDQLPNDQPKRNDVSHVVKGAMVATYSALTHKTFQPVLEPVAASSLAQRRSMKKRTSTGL
Chain of NEK6 (human) (Q9HC98 whole entry, looked up): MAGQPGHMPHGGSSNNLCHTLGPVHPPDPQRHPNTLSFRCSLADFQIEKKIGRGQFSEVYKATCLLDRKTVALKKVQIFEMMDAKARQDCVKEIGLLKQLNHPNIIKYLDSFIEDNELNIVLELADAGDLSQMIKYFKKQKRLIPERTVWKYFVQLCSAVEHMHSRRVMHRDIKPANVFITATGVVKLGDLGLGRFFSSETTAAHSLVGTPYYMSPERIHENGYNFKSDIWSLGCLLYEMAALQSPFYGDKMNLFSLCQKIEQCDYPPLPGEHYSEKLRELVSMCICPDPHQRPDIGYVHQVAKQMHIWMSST
Chain of TSSK1B (human) (Q9BXA7 whole entry, looked up): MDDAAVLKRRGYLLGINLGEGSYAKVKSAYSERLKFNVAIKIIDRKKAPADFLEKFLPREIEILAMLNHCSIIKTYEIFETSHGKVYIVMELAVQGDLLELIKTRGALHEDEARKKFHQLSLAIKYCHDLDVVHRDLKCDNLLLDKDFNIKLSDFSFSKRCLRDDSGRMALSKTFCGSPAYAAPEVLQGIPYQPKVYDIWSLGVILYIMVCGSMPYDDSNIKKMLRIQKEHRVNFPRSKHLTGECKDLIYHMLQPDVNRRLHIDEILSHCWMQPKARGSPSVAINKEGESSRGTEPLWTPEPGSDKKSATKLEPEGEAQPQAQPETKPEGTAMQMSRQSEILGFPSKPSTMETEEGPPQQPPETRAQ
Chain of NEK7 (human) (Q8TDX7 whole entry, looked up): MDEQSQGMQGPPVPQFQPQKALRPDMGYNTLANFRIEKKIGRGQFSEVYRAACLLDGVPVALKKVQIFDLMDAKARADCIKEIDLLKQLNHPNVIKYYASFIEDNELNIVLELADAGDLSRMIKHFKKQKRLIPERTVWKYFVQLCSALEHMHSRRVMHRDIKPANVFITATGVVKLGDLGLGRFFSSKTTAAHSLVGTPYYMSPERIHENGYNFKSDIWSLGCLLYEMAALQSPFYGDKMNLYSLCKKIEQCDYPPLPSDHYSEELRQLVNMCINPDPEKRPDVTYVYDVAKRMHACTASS
Chain of PIP4K2B (human) (P78356 whole entry, looked up): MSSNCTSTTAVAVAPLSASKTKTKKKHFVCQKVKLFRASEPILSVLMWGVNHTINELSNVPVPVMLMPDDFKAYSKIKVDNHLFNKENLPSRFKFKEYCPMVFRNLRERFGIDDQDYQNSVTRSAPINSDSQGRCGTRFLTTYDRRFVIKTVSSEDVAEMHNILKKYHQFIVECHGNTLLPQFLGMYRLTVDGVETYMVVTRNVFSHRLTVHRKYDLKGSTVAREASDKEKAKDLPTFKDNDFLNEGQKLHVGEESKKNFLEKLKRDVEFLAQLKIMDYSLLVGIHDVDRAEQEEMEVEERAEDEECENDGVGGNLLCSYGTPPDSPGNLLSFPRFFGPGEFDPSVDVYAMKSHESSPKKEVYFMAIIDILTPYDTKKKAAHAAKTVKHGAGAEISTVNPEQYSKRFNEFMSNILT
Chain of PHKG2 (human) (P15735 whole entry, looked up): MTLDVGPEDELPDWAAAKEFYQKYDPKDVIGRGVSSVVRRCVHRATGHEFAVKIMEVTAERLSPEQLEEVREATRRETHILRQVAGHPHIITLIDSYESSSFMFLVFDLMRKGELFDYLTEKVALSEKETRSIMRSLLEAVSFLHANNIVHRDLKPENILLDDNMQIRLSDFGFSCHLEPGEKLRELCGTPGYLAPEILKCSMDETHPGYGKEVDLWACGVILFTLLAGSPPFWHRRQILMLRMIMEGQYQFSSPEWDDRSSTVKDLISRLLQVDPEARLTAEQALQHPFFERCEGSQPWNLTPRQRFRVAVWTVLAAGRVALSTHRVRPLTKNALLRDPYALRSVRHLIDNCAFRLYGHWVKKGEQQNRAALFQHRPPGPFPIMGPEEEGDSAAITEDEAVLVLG

Cc1ccc2nc(NCCN)c3ncc(C)n3c2c1
kinase still bound, per cent of control [1]: 100% | kinase still bound, per cent of control [2]: 100% | kinase still bound, per cent of control [3]: 100% | kinase still bound, per cent of control [4]: 100% | kinase still bound, per cent of control [5]: 100% | kinase still bound, per cent of control [6]: 71% | kinase still bound, per cent of control [7]: 77% | kinase still bound, per cent of control [8]: 100% | kinase still bound, per cent of control [9]: 100% | kinase still bound, per cent of control [10]: 100% | kinase still bound, per cent of control [11]: 97% | kinase still bound, per cent of control [12]: 72% | kinase still bound, per cent of control [13]: 100% | kinase still bound, per cent of control [14]: 100% | kinase still bound, per cent of control [15]: 100% | kinase still bound, per cent of control [16]: 6.3% | kinase still bound, per cent of control [17]: 100% | kinase still bound, per cent of control [18]: 100% | kinase still bound, per cent of control [19]: 88% | kinase still bound, per cent of control [20]: 21% | kinase still bound, per cent of control [21]: 100% | kinase still bound, per cent of control [22]: 79% | kinase still bound, per cent of control [23]: 47% | kinase still bound, per cent of control [24]: 100% | kinase still bound, per cent of control [25]: 82% | kinase still bound, per cent of control [26]: 82% | kinase still bound, per cent of control [27]: 98% | kinase still bound, per cent of control [28]: 100% | kinase still bound, per cent of control [29]: 96% | kinase still bound, per cent of control [30]: 100% | kinase still bound, per cent of control [31]: 100% | kinase still bound, per cent of control [32]: 53% | kinase still bound, per cent of control [33]: 100% | kinase still bound, per cent of control [34]: 100% | kinase still bound, per cent of control [35]: 96% | kinase still bound, per cent of control [36]: 89% | kinase still bound, per cent of control [37]: 79% | kinase still bound, per cent of control [38]: 100% | kinase still bound, per cent of control [39]: 100% | kinase still bound, per cent of control [40]: 58%
